Test results taken from patent US10000469B2, “Heat shock protein 70 (hsp-70) receptor ligands” (Duke University, priority 2014, dated 2018).
Entries after “also recorded” stand apart in the source; their conditions may differ.

Key:
[1] = system: Her2 and Akt; experiment: Degradation assay (Western blot of client proteins); format: cell-based
Procedure: Western Blotting: SDS-PAGE was carried out using Criterion™ Cell system using pre-casted 4-20% or 4-15% Criterion™ Tris-HCl gels (BioRad, Hercules, Calif.). For Western blotting gels were run at 200V for 1 hour using the PowerPac basic power supply (BioRad, Hercules, Calif.). Next, gels were transferred to nitrocellulose for blotting at 100V for 1 hour (Fisher Scientific, Waltham, Mass.). Nitrocellulose membranes were blocked with 5% dry non-fat milk in phosphate-buffered saline (PBS) with 0.01% Tween-20 for 1 hour at room temperature. Membranes were incubated with primary antibodies (1:1000 dilution) overnight at 4° C. The next day membranes were washed 3× in PBS-Tween, incubated for 1 hour at room temperature with secondary antibodies, and further washed 3× in PBS-Tween. ECL Plus Western blotting reagent (Pierce Biotechnology, Rockford, Ill.) was used to detect antibodies. GFP, Her2, Akt, Hsp70, Hsc70, Grp78, Grp75, and Hsp90 primary antibodies and all associated secondary antibodies were purchased from Cell Signaling Technology (Danvers, Mass.).
Degradation Assay: The specified cells were seeded overnight and then treated with the indicated concentration of compound for 24 hours. The cells were then harvested and subjected to analysis by Western blot.

[2] = system: MCF7; experiment: Cell proliferation, MCF7; format: cell-based; conditions: MCF7
Procedure: (§1) Cell Proliferation: Cell proliferation was determined using a Hoechst stain (Sigma, St. Louis, Mo.) to quantify DNA. 5,000 cells of the designated cell line were plated in 96 well plates and treated the next day, designated as time point 0, with the indicated concentration of the specified compound maintained for the duration of the assay. At the indicated time points the media was removed and plated frozen at −80° C. Double distilled H2O was then added and the plates were incubated at 37° C. for 1 hour. After 1 hour the plates were frozen at −80° C. After freezing the plates were thawed and Hoechst stain was diluted 1:1000 in THE buffer (10 mM Tris, 2M NaCl, 1 mM Na2EDTA). The final fluorescence was measured on the Victor X2 plate reader at 355/460 nm, and cell proliferation was determined with the formula: % Cell Proliferation=100×(Sample fluorescence−background fluorescence)/(Control fluorescence−background fluorescence).

[3] = system: MCF10A; experiment: Cell proliferation, MCF10A; format: cell-based; conditions: non tumorigenic MCF10A
Procedure: as §1

[4] = target: Hsp70i (Homo sapiens, UniProt P0DMV8); experiment: Partial proteolysis of Hsp70i with trypsin; design: Full length Hsp70 (black arrow) and tryptic fragments (blue arrows); His tag (cleaved yes); made in house; conditions: 100 uM compound, silver stain
Procedure: Mass Spectrometry: Tryptic peptides were subjected to matrix-assisted laser desorption-ionization mass spectrometry (MALDI-MS) on an ABSCIEX TOF/TOF 5800 mass spectrometer. Positive mode time of flight was used to identify peptides, and individual peptides were sequenced by MS/MS. All sequence and peptide fingerprint data was searched using the UniProt database.
Partial Proteolysis: Hsp70i (8 μg for SDS-PAGE analysis, 2 μg for mass spec analysis) was incubated with 1 mM ATP, 1 mM ADP, 100 uM HS72, 100 uM HS72+1 mM ATP, or 100 uM HS72+1 mM ADP for 30 min. at room temperature. Hsp70i was digested by adding 0.1 μg of trypsin (Promega, Madison, Wis.) per 2 μg of protein and was quenched by addition of 25% TFA for mass spec analysis or addition of 5×SDS loading buffer and boiling for SDS-PAGE analysis at 2 hours, or 24 hours. Gels were visualized by silver stain.

[5] = system: RWPE1; experiment: Cell proliferation, RWPE1; format: cell-based; conditions: non tumorigenic RWPE1
Procedure: as §1

[6] = system: PC12 cell line expressing httQ74-GFP; experiment: Aggregation assay, cell culture model of Huntington's disease; format: cell-based, rat; conditions: compared to untreated controls
Procedure: Aggregation Assay: The PC12 rat neuronal cell line, which expresses Huntingtin exon 1 containing 74 glutamine repeats is fused to GFP and under the control of a doxycycline promoter was used [Wyttenbach et al. (2001). Polyglutamine expansions cause decreased CRE-mediated transcription and early gene expression changes prior to cell death in an inducible cell model of Huntington's disease. Human molecular genetics 10, 1829-1845]. Cells were treated with HS-72 for 18 hours prior to a doxycycline addition for 48 hours. The soluble and pellet fraction were then separated by centrifugation at 14,000 rpm for 15 minutes and both fractions were assayed for httQ-GFP by solubilizing with SDS followed by western blotting with antibodies against GFP.

[7] = target: T1, Hsp70 (Sus scrofa, UniProt P34930); experiment: Endogenous Hsp70 elution from ATP resin, pig bladder lysate; format: binding; conditions: few non-specific eluted proteins
T1 construct: from tissue; host or cells: pig bladder
Procedure: Endogenous Hsp70 elution: Pig bladder tissue was used for eluting endogenous Hsp70 from the γ-phosphate ATP sepharose resin. Tissue was homogenized in liquid nitrogen and stored at −80° C. until further use. Tissue mass was measured (g) and then 2.5× volume (mL) of tissue lysis buffer (50 mM HEPES, 60 mM MgCl2, 60 mM KCl, 1 mM DTT) was added and homogenized on a laboratory blender. A total of 25 grams of homogenized tissue was typically used for each experiment. Subsequent to lysis, the tissue was centrifuged at 35,000 RPM in a Beckman Type 45 Ti rotor (Brea, Calif.) for 45 minutes at 4° C., and then filtered over silica wool. The filtered supernatant was then added to the γ-phosphate ATP sepharose resin and washed as previously described in the FLECS screen. Compounds were used to elute Hsp70 and the elutions were then separated by SDS-PAGE and analyzed by Western blot or the gels were visualized by silver stain.

[8] = HS-72 in combination with HS-10

Hsp70i, sequence (P0DMV8 whole entry, the tested form may be a part): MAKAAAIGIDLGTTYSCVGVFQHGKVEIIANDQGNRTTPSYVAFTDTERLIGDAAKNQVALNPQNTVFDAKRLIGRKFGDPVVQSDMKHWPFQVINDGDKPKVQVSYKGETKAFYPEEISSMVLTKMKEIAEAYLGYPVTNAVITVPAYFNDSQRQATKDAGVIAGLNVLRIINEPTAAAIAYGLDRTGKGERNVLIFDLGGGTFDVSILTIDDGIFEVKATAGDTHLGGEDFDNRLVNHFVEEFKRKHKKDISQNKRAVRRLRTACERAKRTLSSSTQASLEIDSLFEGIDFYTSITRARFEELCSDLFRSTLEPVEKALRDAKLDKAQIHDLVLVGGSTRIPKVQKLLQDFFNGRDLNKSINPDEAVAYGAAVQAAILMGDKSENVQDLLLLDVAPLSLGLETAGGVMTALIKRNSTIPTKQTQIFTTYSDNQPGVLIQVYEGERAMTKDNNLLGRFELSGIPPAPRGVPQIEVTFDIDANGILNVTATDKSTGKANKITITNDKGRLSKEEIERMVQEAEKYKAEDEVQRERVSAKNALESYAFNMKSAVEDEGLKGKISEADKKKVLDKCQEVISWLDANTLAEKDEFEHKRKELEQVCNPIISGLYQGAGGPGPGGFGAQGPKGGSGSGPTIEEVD
T1 sequence (P34930 whole entry): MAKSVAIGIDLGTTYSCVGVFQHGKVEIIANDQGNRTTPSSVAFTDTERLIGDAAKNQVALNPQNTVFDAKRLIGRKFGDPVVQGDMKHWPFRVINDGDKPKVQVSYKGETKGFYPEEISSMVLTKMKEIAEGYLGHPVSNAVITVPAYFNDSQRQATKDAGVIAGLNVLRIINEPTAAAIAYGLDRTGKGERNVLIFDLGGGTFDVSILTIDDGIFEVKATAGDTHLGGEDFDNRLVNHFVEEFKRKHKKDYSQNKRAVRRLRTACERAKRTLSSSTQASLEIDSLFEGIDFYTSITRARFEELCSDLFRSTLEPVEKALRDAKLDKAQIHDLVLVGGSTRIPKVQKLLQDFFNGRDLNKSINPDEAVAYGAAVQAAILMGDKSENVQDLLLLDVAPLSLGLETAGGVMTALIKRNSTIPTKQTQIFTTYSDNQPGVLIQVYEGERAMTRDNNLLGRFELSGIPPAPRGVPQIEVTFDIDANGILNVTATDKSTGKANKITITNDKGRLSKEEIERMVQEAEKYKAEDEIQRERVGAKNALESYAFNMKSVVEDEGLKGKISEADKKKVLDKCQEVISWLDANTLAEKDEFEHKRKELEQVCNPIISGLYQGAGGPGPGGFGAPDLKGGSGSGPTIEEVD

CCCn1c(NC(=O)[C@H]2CCCN(c3cnccn3)C2)nc2ccccc21 [HS-72, (S)—N-(1-propyl-1H-benzo[d]imidazol-2-yl)-1-(pyrazin-2-yl)piperidine-3-carboxamide]
Akt degradation [1, 8]: significant Akt degradation
levels of Her2 [1, 8]: completely abolished
Akt and Her2 expression ([1]; compound alone, BT474 breast cancer cells): dose dependent reduction
cell proliferation [2]: inhibits proliferation
cell proliferation, combination with HS-10 [2]: additive effect
cell proliferation, combination with HS-10 ([2]; listed as HS72): synergism
cell proliferation [3]: insensitive; also recorded: continue to grow at all concentrations
proteolytic pattern of Hsp70i [4]: profound difference in the proteolytic pattern
cell proliferation [5]: insensitive; also recorded: only inhibited at the highest concentration tested
increase of HttQ-GFP in the insoluble associated pellet fraction [6]: 50%
elution of Hsp70 from ATP resin [7]: elutes Hsp70
